In US9133207B2, “Tetrandrine derivatives with substituted 5-carbon, preparation method and use thereof” (Hangzhou Bensheng Pharmaceutical Co., Ltd., priority 2011, dated 2015):
Converted amounts (≈) assume the structure as drawn.

Tests used:
[1] = system: Jurkat (acute lymphoblastic leukemia, ALL); assay: Leukemia cell growth inhibition, MTT, 72 h (Example 5); assay type: cell-based, human; conditions: Homo sapiens, Jurkat; 72 h, MTT
Text: (§1) Leukemia cell lines: leukemia cell lines: K562/adr (drug-resistant, chronic myeloid leukemia, CML), NB4 (acute promyelocytic leukemia, AML), Kasumi-1 (acute myeloid leukemia M2 type, AML-M2), Jurkat (acute lymphoblastic leukemia, ALL), all of which are donated by Cancer Research Institute of Zhejiang University, China; and H9 (acute lymphoblastic leukemia, ALL), which is purchased from China Center for Type Culture Collection.
(§2) Reagents: The standard sample of tetrandrine (TTD) is purchased from Ci Yuan Biotechnology Co., Ltd., Shaanxi, China; and the 5-substituted tetrandrine derivatives of the present invention.
(§3) Obtaining 6000 well-growing leukemia cells and inoculating them into wells of a 96-well cell culture plate. The culture medium is a 1640 cell culture medium containing 10% fetal bovine serum. After adding the tetrandrine derivatives of different concentrations and mixing uniformly, placing the plate in a carbon dioxide cell incubator (5% CO2) at 37° C. and incubating for 72 hours. Then the viable cell concentration is determined by the MTT method.

[2] = system: K562/adr (drug-resistant, chronic myeloid leukemia, CML); assay: as above; assay type: cell-based, human; conditions: Homo sapiens, K562/Adr; 72 h, MTT
Text: as §1, §2, §3

[3] = system: Kasumi-1 (acute myeloid leukemia M2 type, AML-M2); assay: as above; assay type: cell-based, human; conditions: Homo sapiens, Kasumi 1
Text: as §1, §2, §3

[4] = system: H9 (acute lymphoblastic leukemia, ALL); assay: as above; assay type: cell-based, human; conditions: Homo sapiens; 72 h, MTT
Text: as §1, §2, §3

[5] = system: RPMI8226 (multiple myeloma); assay: Multiple myeloma cell growth inhibition, MTT, 72 h (Example 6); assay type: cell-based, human; conditions: Homo sapiens, RPMI-8226; 72 h, MTT, RPMI8226
Method: Multiple myeloma and lymphoma cell lines: RPMI8226 (multiple myeloma), purchased from Fuxiang Bio-tech Co. Ltd., Shanghai, China.
(§4) Reagents: the same as in Example 5.
as §3, with “incubated” for “incubating”

MG63 (osteosarcoma) = assay: Solid tumor cell growth inhibition, MTT, 72 h (Example 7); assay type: cell-based, human; conditions: Homo sapiens; 72 h, MTT, MG-63
Method: (§5) Human solid tumor cell lines: Hep-2 (laryngeal carcinoma), A549 (human lung cancer), CaES-17 (esophageal cancer cell), PC-3 (prostate cancer), CNE (nasopharyngeal carcinoma cell) and SK-OV-3 (ovarian cancer cell), all of which are purchased from China Center For Type Culture Collection; RKO (human colon adenocarcinoma cell), MGC 803 (human gastric cancer cell), MG63 (osteosarcoma), and U87 MG (malignant glioma cell), all of which are purchased from Fuxiang Bio-tech Co. Ltd., Shanghai, China; PANC-1 (pancreatic cancer), Huh? (human liver cancer cell), Becap37 (human breast cancer cell), and Hela (human cervical cancer cell), all of which are donated by Cancer Research Institute of Zhejiang University, China.
as §4
(§6) Obtaining 4000 well-growing human solid tumor cells and inoculating them into wells of a 96-well cell culture plate. The culture medium is DMEM High Glucose cell culture medium containing 10% fetal bovine serum. The plate is placed in a carbon dioxide cell incubator (5% CO2) at 37° C. and incubated for 24 hours. After been added with tetrandrine derivatives of different concentration and mixing uniformly, the plate is placed in a carbon dioxide cell incubator (5% CO2) at 37° C. and incubated for 72 hours. Then the viable cell concentration is determined by the MTT method and the cell viability (%) after drug treatment is calculated. In this experiment, the cell viability of control group (not treated with any compound) is set as 100%.

PC-3 (prostate cancer) = assay: as above; assay type: cell-based, human; conditions: Homo sapiens; 72 h, MTT, PC-3
Method: as §5, §4, §6

[6] = system: CaES-17 (esophageal cancer cell); assay: as above; assay type: cell-based, human; conditions: Homo sapiens, CaEs17; 72 h, MTT, CAES-17
Method: as §5, §4, §6

[7] = system: PANC-1 (pancreatic cancer); assay: as above; assay type: cell-based, human; conditions: Homo sapiens; 72 h, MTT, PANC-1
Method: as §5, §4, §6

A549 (human lung cancer) = assay: as above; assay type: cell-based; conditions: Homo sapiens; 72 h, MTT, A549
Method: as §5, §4, §6

[8] = system: Huh7 (human liver cancer cell); assay: as above; assay type: cell-based; conditions: Homo sapiens; 72 h, MTT, Huh-7
Method: as §5, §4, §6

[9] = system: MGC 803 (human gastric cancer cell); assay: as above; assay type: cell-based; conditions: Homo sapiens
Method: as §5, §4, §6

[10] = system: Becap37 (human breast cancer cell); assay: as above; assay type: cell-based; conditions: Homo sapiens; 72 h, MTT, Becap-37
Method: as §5, §4, §6

| SMILES | IC50 [1] | IC90 [1] | IC50 [2] | IC90 [2] | IC50 [3] | IC90 [3] | IC50 [4] | IC90 [4] | IC50 [5] | IC90 [5] | IC50 (MG63 (osteosarcoma)) | IC90 (MG63 (osteosarcoma)) | IC50 [6] | IC90 [6] | IC50 [7] | IC90 [7] | IC50 (A549 (human lung cancer)) | IC90 (A549 (human lung cancer)) | IC50 [8] | IC90 [8] | further results |
| --- | --- | --- | --- | --- | --- | --- | --- | --- | --- | --- | --- | --- | --- | --- | --- | --- | --- | --- | --- | --- | --- |
| COCCCOCc1c2c3c(c(OC)c1OC)Oc1cc4c(cc1OC)CCN(C)[C@H]4Cc1ccc(cc1)Oc1cc(ccc1OC)C[C@@H]3N(C)CC2 [BS-TE-416] | 3.45 µg/mL (≈ 4.76 µM) | 11.7 µg/mL (≈ 16.1 µM) | 0.98 µg/mL (≈ 1.35 µM) | 5.59 µg/mL (≈ 7.71 µM) | 2.11 µg/mL (≈ 2.91 µM) | 8.17 µg/mL (≈ 11.3 µM) | 2.31 µg/mL (≈ 3.19 µM) | 4.4 µg/mL (≈ 6.07 µM) | 0.29 µg/mL (≈ 0.4 µM) | 2.76 µg/mL (≈ 3.81 µM) | 1.08 µg/mL (≈ 1.49 µM) | 2.49 µg/mL (≈ 3.43 µM) | 2.3 µg/mL (≈ 3.17 µM) | 16.6 µg/mL (≈ 22.9 µM) | 4.63 µg/mL (≈ 6.39 µM) | 10 µg/mL (≈ 13.8 µM) | 4.05 µg/mL (≈ 5.59 µM) | 11 µg/mL (≈ 15.1 µM) | 2.93 µg/mL (≈ 4.04 µM) | 5.07 µg/mL (≈ 6.99 µM) | IC50 (PC-3 (prostate cancer)): 4.19 µg/mL (≈ 5.78 µM); IC90 (PC-3 (prostate cancer)): 9.49 µg/mL (≈ 13.1 µM); IC50 [9]: 5.17 µg/mL (≈ 7.13 µM); IC90 [9]: 8.33 µg/mL (≈ 11.5 µM); IC50 [10]: 1.8 µg/mL (≈ 2.48 µM); IC90 [10]: 4.31 µg/mL (≈ 5.95 µM) |
| COc1ccc2cc1Oc1ccc(cc1)C[C@H]1c3cc(c(OC)cc3CCN1C)Oc1c(OC)c(OC)c(COCc3ccc(F)cc3)c3c1[C@H](C2)N(C)CC3 [BS-TE-408] | 2.94 µg/mL (≈ 3.86 µM) | 6.94 µg/mL (≈ 9.12 µM) | 0.87 µg/mL (≈ 1.14 µM) | 2.78 µg/mL (≈ 3.65 µM) | 2.52 µg/mL (≈ 3.31 µM) | 8 µg/mL (≈ 10.5 µM) | 2.5 µg/mL (≈ 3.29 µM) | 3.99 µg/mL (≈ 5.24 µM) | 0.23 µg/mL (≈ 0.302 µM) | 1.13 µg/mL (≈ 1.49 µM) | 2.88 µg/mL (≈ 3.78 µM) | 9.84 µg/mL (≈ 12.9 µM) | 4.8 µg/mL (≈ 6.31 µM) | 14.9 µg/mL (≈ 19.6 µM) | 6 µg/mL (≈ 7.89 µM) | 9.9 µg/mL (≈ 13 µM) | 3.1 µg/mL (≈ 4.07 µM) | 7.05 µg/mL (≈ 9.27 µM) | 1.84 µg/mL (≈ 2.42 µM) | 3.51 µg/mL (≈ 4.61 µM) | IC50 (PC-3 (prostate cancer)): 5.77 µg/mL (≈ 7.58 µM); IC90 (PC-3 (prostate cancer)): 9.09 µg/mL (≈ 11.9 µM); IC50 [9]: 2.59 µg/mL (≈ 3.4 µM); IC90 [9]: 3.97 µg/mL (≈ 5.22 µM); IC50 [10]: 4.89 µg/mL (≈ 6.43 µM); IC90 [10]: 36.6 µg/mL (≈ 48.1 µM) |
| COc1ccc2cc1Oc1ccc(cc1)C[C@H]1c3cc(c(OC)cc3CCN1C)Oc1c(OC)c(OC)c(COCC3CCOC3)c3c1[C@H](C2)N(C)CC3 (stereo partly drawn) [BS-TE-417] | 3.64 µg/mL (≈ 4.94 µM) | 12.1 µg/mL (≈ 16.5 µM) | 0.88 µg/mL (≈ 1.19 µM) | 4.63 µg/mL (≈ 6.28 µM) | 1.8 µg/mL (≈ 2.44 µM) | 9.69 µg/mL (≈ 13.1 µM) | 2.03 µg/mL (≈ 2.75 µM) | 4.37 µg/mL (≈ 5.93 µM) | 0.27 µg/mL (≈ 0.366 µM) | 2 µg/mL (≈ 2.71 µM) | 1.06 µg/mL (≈ 1.44 µM) | 3.66 µg/mL (≈ 4.97 µM) | 2.04 µg/mL (≈ 2.77 µM) | 12 µg/mL (≈ 16.3 µM) | 4.66 µg/mL (≈ 6.32 µM) | 9.5 µg/mL (≈ 12.9 µM) | 3.88 µg/mL (≈ 5.27 µM) | 10.1 µg/mL (≈ 13.7 µM) | 2.48 µg/mL (≈ 3.37 µM) | 3.76 µg/mL (≈ 5.1 µM) | IC50 (PC-3 (prostate cancer)): 4.1 µg/mL (≈ 5.56 µM); IC90 (PC-3 (prostate cancer)): 7.91 µg/mL (≈ 10.7 µM); IC50 [9]: 5.09 µg/mL (≈ 6.91 µM); IC90 [9]: 8.27 µg/mL (≈ 11.2 µM); IC50 [10]: 1.77 µg/mL (≈ 2.4 µM); IC90 [10]: 3.79 µg/mL (≈ 5.14 µM) |
| COc1ccc2cc1Oc1ccc(cc1)C[C@H]1c3cc(c(OC)cc3CCN1C)Oc1c(OC)c(OC)c(CN(C)C)c3c1[C@H](C2)N(C)CC3 [BS-TE-341] | 9.14 µg/mL (≈ 13.4 µM) | > 16 µg/mL | 1.8 µg/mL (≈ 2.65 µM) | 16 µg/mL (≈ 23.5 µM) | 5.64 µg/mL (≈ 8.3 µM) | 16 µg/mL (≈ 23.5 µM) | 6.87 µg/mL (≈ 10.1 µM) | 22.1 µg/mL (≈ 32.5 µM) | 0.35 µg/mL (≈ 0.515 µM) | 3.31 µg/mL (≈ 4.87 µM) | 3.16 µg/mL (≈ 4.65 µM) | 9.8 µg/mL (≈ 14.4 µM) | 4.8 µg/mL (≈ 7.06 µM) | 25.8 µg/mL (≈ 37.9 µM) | > 10 µg/mL | > 10 µg/mL | > 16 µg/mL | > 16 µg/mL | 4.71 µg/mL (≈ 6.93 µM) | 7.88 µg/mL (≈ 11.6 µM) | IC50 [9]: 9.67 µg/mL (≈ 14.2 µM); IC90 [9]: 15.1 µg/mL (≈ 22.2 µM); IC50 [10]: 9.8 µg/mL (≈ 14.4 µM); IC90 [10]: > 10 µg/mL |
